Assay results published in patent publication US20250134902A1, “DRUG REPURPOSING FOR DELAYED TREATMENT OF ISCHEMIC STROKE” (UNIVESRITY OF NORTH TEXAS HEALTH SCIENCE CENTER, priority 2022, published 2025).
Where two headings read alike, the source gives them in different places. Values belong to the compound of their own block, whether it stands above or below them.

Legend:
neuronal MN9D cell line = test: BDNF secretion via in situ ELISA; format: cell-based; conditions: MN9D cells; for Efficacy of BDNF secretion: 24 hrs, normalized to maximal response of 10 μM 4-PPBP, mean ± SEM, asterisk = significantly different from 4-PPBP
Text: Measuring BDNF secretion via in situ ELISA. […] The in situ ELISA improves on traditional ELISA by seeding BDNF-secreting cells directly into the wells pre-coated with an anti-BDNF primary antibody. BDNF secreted by these cells is immediately captured by the primary antibody, drastically increasing the sensitivity and reproducibility of the ELISA assay. Intact cells are removed […] the addition of the secondary and tertiary antibodies. The amount of BDNF secreted from the neuronal MN9D cells was quantified using an in situ ELISA assay developed using the BDNF EMAX® ImmunoAssay kit (Cat. No. G7611, Promega, Madison, WI). Briefly, a NUNC™ MAXISORP™ flat-bottom, polystyrene, 96-well immunoplate was coated for 48 hrs at 4° C. with an anti-BDNF monoclonal antibody diluted 1:1000 v/v in carbonate buffer containing 25 mM sodium bicarbonate and 25 mM sodium carbonate, pH 9.7. Unbound antibody was removed by washing 5 times with 150 μL of TBST buffer (20 mM Tris-HCl, pH7.6, 150 mM NaCl, and 0.05% (v/v) TWEEN® 20), before blocking non-specific sites first with blocking buffer for 1 hr and then with culture medium for 2 hrs. Cells were seeded at 35,000 cells per well and incubated overnight at 37° C. in a humidified CO2 incubator. The following day, the wells were replaced with fresh culture media containing either experimental compounds or vehicle controls, then incubated for an additional 24 hours. In addition, on the same plate, but in separate wells, BDNF standards were added ranging in concentration from 15.6-250 pg/mL. After 24 hrs incubation with experimental compounds, the media was aspirated and 100 μL of Dulbecco's phosphate saline (D-PBS without Ca^2+ and Mg^2+ supplemented with 5 mM EDTA) was added to each well and incubated for 15 min at 37° C. to promote cell lifting. Cells were then detached from the bottom of wells by triturating in the center and around the edges of the well. After removing all cell debris, the wells were rinsed five times with 150 μL of TBST. The plate was then incubated with 1:500 v/v diluted polyclonal anti-human BDNF antibody for 2 hrs at room temperature. This antibody was removed, and wells were washed five times with 150 μL of TBST, before incubating with 1:200 v/v diluted polyclonal Anti-IgY HRP conjugate for 2 hrs at room temperature. Wells were then washed five times with 150 μL of TBST and the remaining specifically bound polyclonal antibody was detected with the 50 μL colorimetric HRP substrate 3,3′,5,5′-Tetramethylbenzidine (TMB). The reaction was terminated with 50 μL of 1 M HCl and the color intensity was quantified by measuring the absorbance at 450 nm using a FLEXSTATION® 3 plate reader (Molecular Devices, Sunnyvale, CA). […] A one-way ANOVA with a Bonferroni multiple comparisons post-hoc analysis (P<0.05) was applied to determine significant differences between groups.
Further, BDNF secreted from MN9D cells can be detected 24 hours after treatment with S1R ligand, whereas BDNF secreted from the B104 cell line takes 7 days to be detected (Fujimoto, et al., 2012).
An in situ ELISA approach was utilized because of its improved sensitivity related to its rapid capture of secreted BDNF (Balkowiec & Katz, 2000; Dalwadi, et al., 2017). […] Values are averages of 2-10 experiments±SEM, and each experiment was performed in triplicate. Statistical significance at P<0.05 was determined by ANOVA followed by a Bonferroni's post-hoc test and are marked with an asterisk.

rat blood = test: Clotting (streak) assay of thrombotic potential
Procedure: Clotting assays. Thrombotic potential was assessed with trunk blood from donor rats using a protocol modified from Kim et al. (Kim et al., 2010). Oxeladin was compared to whole blood with or without the anticoagulant benzamidine and several other S1R ligands at doses 10× greater than those that stimulate the release of BDNF (Dalwadi et al., 2022; Dalwadi et al., 2017). Blood was rapidly collected into chilled, pre-weighed plastic tubes containing a known quality of EDTA disodium salt (>3.7 mM) electrostatically-coated onto the tube wall. Blood was prevented from coagulating by gently swirling the chilled EDTA-coated tube. The tube was weighed and the volume of collected blood calculated in order to compute the exact concentration of EDTA in the uncoagulated blood sample allowing us to determine which concentration of calcium to add back into the blood to initiate coagulation. Uncoagulated blood samples were stored chilled. The following was be dispensed into NUNC™ MICROWELL™ MiniTrays: 8 μL/well of normal saline containing a concentration of calcium 1.2 mM higher than that of the concentration of EDTA in the blood sample, 1 μL/well of oxeladin, 3 mM benzamidine anticoagulant positive control, or untreated or vehicle negative controls, and 1 μL/well of (EDTA-treated) uncoagulated rat blood. Plates were tilted at a 45° angle at 5, 15, 30, 45 and 60 minutes to observe coagulation (i.e., no streaking) and compared to the controls. Each triplicate well was scored by a treatment-blinded observer as Yes (coagulation, no streaking) or No (no coagulation, streaking). The experiment was repeated with two separate donor rats.
Referring to FIG. 5, the effect on thrombotic activity of test drugs, benzamidine anticoagulant positive control, or untreated or vehicle negative controls on whole blood from donor rats was assessed by tilting treated blood samples at a […] to observe coagulation (i.e., no streaking) between […] (top panel). Blood coagulation was represented by a value between 1 (no streaking, coagulation) and 0 (streaking, less or no coagulation), and values were assigned for each test drug, benzamidine, and untreated and vehicle controls (bottom panel). Quantitative results from these clotting assays, including coagulation half-life, are summarized below in Table 5.

[1] = target: T1, human Sigma-1 receptor (S1R) (Homo sapiens, UniProt Q99720); test: Radioligand competition binding at Sigma-1 receptor ([3H]-(+)-pentazocine, MCF-7-hS1R)
T1 construct: expressed in transfected cells
Procedure: Measuring receptor density with radioligand binding.
Measuring the ligand affinities at SIR and S2R receptors by radioligand binding. […] Binding conditions were the same as described previously for the S1R (Schetz, et al., 2007): binding buffer (Tris 50 mM, pH=8.1 at 37° C.), ice-cold wash buffer (Tris 10 mM, pH=8.1 at 0-2° C.), and incubation time (3 hrs at 37° C.) with shaking. Non-specific binding for the S1R and S2R was determined in the presence of 5 μM BD1063 and […] haloperidol, respectively. Following incubation, receptors were collected via rapid filtration through GF/C filters (Brandel, Gaithersburg, MD) followed by washing three times with 3 mL of ice-cold wash buffer. Dried filters were transferred to vials filled with 3.5 ml of scintillation fluid, and the radioactivity was quantified on a liquid scintillation analyzer (TRICARB® 2800TR) from Perkin Elmer (Saint Louis, MO). Mean values from duplicate or triplicate determinations are reported along with their associated standard error of the mean (SEM). Ki values were calculated from IC50 values using the Cheng-Prusoff equation. The concentration of membrane protein was determined using a PIERCE® BCA Protein Assay kit (Life Technologies, Grand Island, NY) following the manufacturer's protocol.
Referring to FIG. 1, the selectivity of potential S1R ligands over S2R was empirically evaluated. Human MCF-7 cells were used as the source of the S2R because these cells express the endogenous S2R (Vilner, John, et al., 1995; Wu & Bowen, 2008) but lack detectable levels of the S1R, allowing unambiguous detection of S2R activity in untransfected cells (Schetz, et al., 2007). MCF-7 cells stably expressing the cloned human S1R were used as the source of S1R.

[2] = displacement of 0.5 nM [3H]-(+)-pentazocine, MCF-7 cells expressing human S1R, average of 2-3 experiments ± SEM, read-out: S1R affinity (Ki)

T1 sequence (Q99720 whole entry): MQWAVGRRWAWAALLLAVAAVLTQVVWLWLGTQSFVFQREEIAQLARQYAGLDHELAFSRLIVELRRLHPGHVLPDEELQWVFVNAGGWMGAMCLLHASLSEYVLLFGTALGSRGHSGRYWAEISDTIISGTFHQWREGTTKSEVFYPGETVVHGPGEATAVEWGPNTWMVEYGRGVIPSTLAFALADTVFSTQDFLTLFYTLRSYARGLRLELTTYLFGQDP

Coagulation Half-Life (λ1/2 ± SD) (rat blood; rat): 19 ± 16 min
SMILES: CCC(C/C=C/c1ccccc1)(c1ccccc1)N(C)CC1CC1 (single isomer, unassigned; (+)) [(+)-igmesine]
Efficacy of BDNF secretion (neuronal MN9D cell line; 10 μM): 0.42 ± 0.03

SMILES: c1ccc(CCCCN2CCC(c3ccccc3)CC2)cc1 [4-PPBP]
Efficacy of BDNF secretion (neuronal MN9D cell line; 10 μM): 1
BDNF secreted, maximal stimulation (neuronal MN9D cell line; 10 μM, averaged ± SEM, n=3-10, baseline 75.4±6.9): 128.6 ± 12.8 pg/mL
Coagulation Half-Life (λ1/2 ± SD) (rat blood; 100 μM, rat blood): 11 ± 6 min

SMILES: CN1CCN(CCc2ccc(Cl)c(Cl)c2)CC1 [BD1063]
reversal of S1R agonist-induced BDNF secretion (neuronal MN9D cell line; 15 nM antagonist): reversed

Coagulation Half-Life (λ1/2 ± SD) (rat blood; 3000 μM, rat blood, positive control): >1,440 minutes
Coagulation Half-Life (λ1/2 ± SD) (rat blood; 3000 μM, rat blood, positive control, listed as positive control): > 1,440 minutes
SMILES: N=C(N)c1ccccc1 [Benzamidine]

SMILES: CCC(C(=O)OCCOCCN(CC)CC)c1ccccc1 (stereo not drawn) [Butamirate]
selective for S1R over S2R [1]: 10 fold
Ki [1, 2]: 17.2 ± 1.7 nM
S2R/S1R ratio (Ki S2R/Ki S1R) ([1]; selectivity for S1R over S2R): 10
stimulation of BDNF secretion (neuronal MN9D cell line; 10 μM): With the exception of butamirate, all compounds were able to stimulate BDNF release

SMILES: CCN(CC)CCOCCOC(=O)C1(c2ccccc2)CCCC1 [Carbetapentane]
Ki [1, 2]: 19.8 ± 2.3 nM
Efficacy of BDNF secretion (neuronal MN9D cell line; 10 μM): 0.73 ± 0.05
Coagulation Half-Life (λ1/2 ± SD) (rat blood; rat): 23 ± 18 min

SMILES: OC(CCCN1CCC(O)(c2ccc(Cl)cc2)CC1)c1ccc(F)cc1 (stereo not drawn) [Haloperidol Metabolite II]
Coagulation Half-Life (λ1/2 ± SD) (rat blood; 100 μM, rat blood): 14 ± 11 min

Coagulation Half-Life (λ1/2 ± SD) (rat blood; rat): 11 ± 6 min
SMILES: Cc1c(C2CCN(CCc3ccccc3)CC2)noc1-c1ccc(Cl)cc1 [L-741, 742]

SMILES: Clc1ccc(N2CCN(Cc3c[nH]c4ncccc34)CC2)cc1 [L-745, 870]
Coagulation Half-Life (λ1/2 ± SD) (rat blood; rat): 11 ± 6 min

SMILES: O=C(OCCN1CCOCC1)C1(c2ccccc2)CCCCC1 [PRE-084]
stimulation of BDNF secretion (neuronal MN9D cell line; 10 μM): failed to stimulate BDNF secretion

selective for S1R over S2R [1]: 5 fold
Ki ([1]; receptor not given, S1R implied, read-out: affinity): 157 nM
effect on thrombosis in blood (rat blood): do not alter thrombosis
SMILES: CC(CN1c2ccccc2Sc2ccccc21)N(C)C (stereo not drawn) [Promethazine]
Efficacy of BDNF secretion (neuronal MN9D cell line; 10 μM): 1.09 ± 0.34

Coagulation Half-Life (λ1/2 ± SD) (rat blood; rat): 11 ± 6 min
SMILES: COc1ccc(CCN2CCN(CCCc3ccccc3)CC2)cc1OC [SA4503]
